From article PMC11314731 (Polymers, 2024)
Read-outs that look alike come from different tables or passages of the source.

Legend:
[1] = cited from earlier work
[2] = test system: Mdr1a P-gp; design: method as in PMID 9050899; conditions: cited from earlier work
[3] = test system: Caco-2 cells; experiment: In vitro cellular uptake of Rh123 in Caco-2 cells; conditions: Rh123 20 µM, 5 h incubation, 37 °C; TPGS 33 µM, CyA 4 µM

Question: Which results are given for `CC(=O)O[C@H]1C(=O)[C@@]2(C)[C@H]([C@H](OC(=O)c3ccccc3)[C@]3(O)C[C@H](OC(=O)[C@H](O)[C@@H](NC(=O)c4ccccc4)c4ccccc4)C(C)=C1C3(C)C)[C@]1(OC(C)=O)CO[C@@H]1C[C@@H]2O` [PTX, Paclitaxel]?
Answer: LogP [1]: 3.66; pKa [1]: 10.36; increase in plasma AUC of PTX, Mdr1a knockout vs wild-type mice ([2]; IV administration): twofold increase; increase in plasma AUC of PTX, Mdr1a knockout vs wild-type mice ([2]; oral administration): more than sixfold increase

Question: Which “fluorescence intensity (cellular uptake of Rh123)” value [3] does the source give for `COC(=O)c1ccccc1-c1c2ccc(=N)cc-2oc2cc(N)ccc12` [free Rh123, rhodamine 123] here?
Answer: The value was “very low fluorescence intensity”.
